Where two headings read alike, the source gives them in different places.
Assays:
STAT3 = settings: in some settings; read-out: STAT3 inhibition IC50; cited from earlier work
STAT3-SH2 domain [1] = target: T1, STAT3-SH2 domain (Homo sapiens, UniProt P40763); experiment: STAT AlphaScreen-based assay (STAT3); format: binding; settings: for IC50 / inhibition at 30 µM: AlphaScreen assay; for IC50: read-out: STAT3 IC50 ±SD; for inhibition at 30 µM: read-out: STAT3 % inhibition ± SD at 30 μM
[2] = tested on: STAT3 reporter activity in HeLa cells; experiment: STAT3 luciferase reporter gene assay; format: cell-based; settings: Homo sapiens, 2 h pretreatment, oncostatin M 10 ng/ml 4 h, read-out: STAT3 reporter assay (HeLa) IC50 ±SD
Description: STAT3 reporter HeLa stable cell lines (Signosis Inc, Santa Clara, CA) were incubated in a 96-well microplate for 24 h. Cells were pretreated with test compounds for 2 h, and 10 ng/ml (w/v) of oncostatin M were applied and incubated for 4 h. Cells were washed with medium not supplemented with phenol red, and Steady-Glo® reagent (Promega, Madison, WI) was applied. After 15 min incubation, the signals were detected by ARVO Light 1420 (PerkinElmer Life Sciences, Waltham, MA). The relative signal intensity was calculated in each well as the ratio for the mean signal of vehicle.

HCT-116 cells = experiment: MTT assay, cytotoxicity on HCT-116; format: cell-based, human; settings: for IC50 at 48 h: human, HCT-116 cells; for IC50 at 48 h / IC50: MTT assay, NA = not active up to 100 μM, read-out: Cytotoxicity (HCT-116) IC50 ±SD, 48 h
Description: Following the same protocol used for previous cytotoxicity assays by N. Ferri[55], cells were seeded in 48-well plate (40.000 cells/well) and, after 24 h, they were incubated with different concentrations of our compounds for 48 h.
The determination of the conversion of MTT (3-(4,5-dimethyl-2-thiazolyl)-2,5-diphenyl-2H-tetrazolium bromide) to formazan was determined by using a commercially available kit (Millipore, Billerica, MA), according to the manufacturer’s instructions.

[3] = tested on: NF-κB promoter activity in HCT-116 cells; experiment: Luciferase reported NF-κB promoter activity assay; format: cell-based; settings: Homo sapiens, 2 h pre-treatment, TNF-α 10 ng/ml, NA = not active up to 100 μM, read-out: NF-κB promoter assay (HCT-116) IC50 ±SD
Description: To measure the NF-κB promoter activity, HCT-116 cells were seeded in 100 mm dish and transiently transfected with 6 μg of DNA (NF-κB plasmid, containing luciferase reporter gene[57] with turbofect reagent (Carlo Erba Reagents). After 24 h, cells were seeded in 48-well plates (40.000 cells per well). On the next day, cells were incubated with our compounds for 2 h (pre-treatment) and then TNF-α was added in every well at (10 ng/ml). After 5–6 h, luciferase activity was measured by using Neolite reagent (PerkinElmer Life Sciences, Waltham, MA) according to the manufacturer’s instructions.

SH2-domain of STAT1 = target: T2, SH2-domain of STAT1 (Homo sapiens, UniProt P42224); experiment: STAT AlphaScreen-based assay (STAT1 selectivity); format: binding; settings: for inhibition at 30 µM: read-out: STAT1 % inhibition ± SD at 30 μM, 30 μM; for IC50: read-out: STAT1 IC50 ±SD
T2 sequence (P42224 1-750): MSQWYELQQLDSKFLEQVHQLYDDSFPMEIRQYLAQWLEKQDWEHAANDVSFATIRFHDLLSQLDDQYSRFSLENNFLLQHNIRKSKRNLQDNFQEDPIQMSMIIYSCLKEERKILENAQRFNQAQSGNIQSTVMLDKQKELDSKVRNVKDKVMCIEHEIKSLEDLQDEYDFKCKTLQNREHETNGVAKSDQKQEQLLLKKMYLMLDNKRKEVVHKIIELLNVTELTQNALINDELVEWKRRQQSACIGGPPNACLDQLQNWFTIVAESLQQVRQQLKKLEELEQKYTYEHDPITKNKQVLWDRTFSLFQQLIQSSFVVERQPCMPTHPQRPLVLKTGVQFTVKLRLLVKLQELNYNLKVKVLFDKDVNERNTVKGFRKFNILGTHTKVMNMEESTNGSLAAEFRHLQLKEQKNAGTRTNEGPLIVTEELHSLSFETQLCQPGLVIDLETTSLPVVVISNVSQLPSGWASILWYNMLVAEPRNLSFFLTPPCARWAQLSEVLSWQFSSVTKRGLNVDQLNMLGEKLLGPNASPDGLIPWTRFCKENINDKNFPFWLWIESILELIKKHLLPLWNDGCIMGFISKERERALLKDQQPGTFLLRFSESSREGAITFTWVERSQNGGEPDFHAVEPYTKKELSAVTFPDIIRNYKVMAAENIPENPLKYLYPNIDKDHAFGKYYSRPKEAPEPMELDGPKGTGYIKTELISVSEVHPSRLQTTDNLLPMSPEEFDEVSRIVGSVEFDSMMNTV
Description: STAT3 inhibitory activity of the described compounds was tested by the AlphaScreen-based assay to evaluate the potential inhibition of the interaction between STAT3-SH2 domain and pTyr-containing peptides according to the previously reported procedure. For the most interesting compounds, selectivity tests versus STAT1 were performed.
The new sulfurated-drug hybrids, together with their parent compounds have been submitted to the AlphaScreen-based assay, to investigate their ability to bind STAT3 directly, through the evaluation of the inhibition of the binding of SH2-containing proteins to their correspondent phosphopeptides, the physiological ligands. […] Since AlphaScreen is a cell-free assay, not always there is a correspondence between the potency of STAT3 inhibition and cytotoxicity, probably due to not optimal physicochemical properties of the tested compounds, such as solubility and chemical stability in the culture medium and cell permeation.

[4] = tested on: lymphocytic leukemia P388; set-up: method as in PMID 8003178; settings: injected i.p. in mice, 24 h after the tumor implants; data from National Cancer Institute; cited from earlier work
[5] = tested on: MCF-7 (hormone sensitive breast cancer) cells; experiment: Cytotoxicity against MCF-7 cells; format: cell-based; settings: in comparison to HCT-116
[6] = tested on: human smooth muscle cells (hSMC); experiment: Cytotoxicity versus normal human smooth muscle cells; format: cell-based
STAT3-SH2 domain [7] = target: T1, STAT3-SH2 domain; set-up: method as in PMID 28097912; settings: maximum tested concentration 30 μM; read-out: STAT3-SH2 domain binding IC50 (AlphaScreen), previously described hybrids; cited from earlier work
[8] = tested on: PC3 subcutaneous xenografts; set-up: method as in PMID 18266964; settings: in vivo; cited from earlier work
[9] = tested on: different tumoral cell lines; set-up: method as in PMID 18266964, PMID 22212895; settings: cited from earlier work

T1 sequence (P40763 whole entry, the tested form may be a part): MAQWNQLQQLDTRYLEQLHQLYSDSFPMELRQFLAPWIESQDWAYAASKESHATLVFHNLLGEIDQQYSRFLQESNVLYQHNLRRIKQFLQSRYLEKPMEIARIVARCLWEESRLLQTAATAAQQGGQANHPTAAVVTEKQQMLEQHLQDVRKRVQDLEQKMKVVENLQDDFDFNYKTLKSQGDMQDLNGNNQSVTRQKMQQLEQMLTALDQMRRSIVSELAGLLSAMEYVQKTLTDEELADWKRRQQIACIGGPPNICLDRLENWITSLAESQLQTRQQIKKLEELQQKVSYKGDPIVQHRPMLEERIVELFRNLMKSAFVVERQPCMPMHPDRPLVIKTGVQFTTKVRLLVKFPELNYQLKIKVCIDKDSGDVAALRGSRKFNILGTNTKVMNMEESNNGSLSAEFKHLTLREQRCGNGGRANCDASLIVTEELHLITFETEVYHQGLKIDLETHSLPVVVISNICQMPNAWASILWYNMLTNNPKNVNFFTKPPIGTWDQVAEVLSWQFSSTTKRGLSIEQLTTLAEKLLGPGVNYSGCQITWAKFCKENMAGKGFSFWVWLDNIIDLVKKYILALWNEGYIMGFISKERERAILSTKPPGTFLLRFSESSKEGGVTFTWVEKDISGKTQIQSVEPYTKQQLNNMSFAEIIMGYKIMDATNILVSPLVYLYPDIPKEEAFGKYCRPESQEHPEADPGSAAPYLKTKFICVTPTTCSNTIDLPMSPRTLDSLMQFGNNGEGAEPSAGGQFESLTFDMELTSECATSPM

| IC50 (STAT3-SH2 domain [1]) [µM] | IC50 [2] [µM] | melting point | IC50 [3] [µM] | inhibition at 30 µM (SH2-domain of STAT1) [%] | IC50 (SH2-domain of STAT1) [µM] | inhibition at 30 µM (STAT3-SH2 domain [1]) [%] | Compound | IC50 (STAT3) [µM] | IC50 at 48 h (HCT-116 cells) [µM] | IC50 (HCT-116 cells) [µM] | activity against lymphocytic leukemia P388 [4] | fold increase of inhibitory potency on STAT3 (STAT3-SH2 domain [1]; in comparison to rosmaricine) [fold] | fold increase of antiproliferative activity (HCT-116 cells; HCT-116, in comparison to rosmaricine) [fold] | cytotoxicity against MCF-7 cells [5] | selectivity index (hSMC versus HCT-116) [6] | IC50 ([6]; Homo sapiens, HSMC) [µM] | IC50 (STAT3-SH2 domain [7]) [µM] | growth of PC3 in subcutaneous xenografts [8] | in vitro antiproliferative activity [9] |
| --- | --- | --- | --- | --- | --- | --- | --- | --- | --- | --- | --- | --- | --- | --- | --- | --- | --- | --- | --- |
| > 30 | – | – | – | – | – | – | O=C(O)/C=C/c1ccc(O)c(O)c1 [Compound 19, caffeic acid, reference compound] | 70 to 100 | – | – | – | – | – | – | – | – | – | – | – |
| 0.8 ± 0.2 | 60.6 ± 2.8 | 133.1 to 134.8 °C | 128 ± 8.9 | 85.7 ± 4.3 | 17 ± 1.2 | 100.1 ± 0.1 | CS(=O)(=O)SCCOC(=O)/C=C/c1ccc(O)c(O)c1 [Compound 21, (E)-2-(methylsulfonylthio)ethyl 3-(3,4-dihydroxyphenyl)acrylate] | – | 123 ± 17.3 | – | – | – | – | – | – | – | – | – | – |
| 5.5 ± 0.2 | 94.4 ± 26.1 | – | 163 ± 11.1 | 37.7 ± 7.5 | > 30 | 70 ± 1.7 | C=CCSSCCOC(=O)/C=C/c1ccc(O)c(O)c1 [Compound 23, (E)-2-(allyldisulfanyl)ethyl 3-(3,4-dihydroxyphenyl)acrylate] | – | 73 ± 8 | – | – | – | – | – | – | – | – | – | – |
| 13.2 ± 0.9 | 40 ± 1.5 | 199.5 to 201.5 °C | 40.6 ± 3 | 21.5 ± 1.8 | > 30 | 66.7 ± 0.5 | O=C(/C=C/c1ccc(O)c(O)c1)Oc1ccc(-c2cc(=S)ss2)cc1 [Compound 24, (E)-4-(3-thioxo-3H-1,2-dithiol-5-yl)phenyl 3-(3,4-dihydroxyphenyl)acrylate] | – | 46.7 | 46.7 ± 4.1 | – | – | – | – | – | – | – | – | – |
| 1.9 ± 0.1 | 42.4 ± 2.4 | 198.2 to 202.5 °C | 43.4 ± 6.9 | 91.8 | 10 ± 0.6 | 99.7 | CC(C)c1cc2c(c(O)c1O)C13CCCC(C)(C)C1C(OC3=O)C2N (centres unmarked) [Compound 30, rosmaricine] | – | 65 | 65.2 ± 2.3 | inactive or endowed with borderline activity | – | – | – | – | – | – | – | – |
| 2.9 ± 0.2 | > 100 | 243.2 to 249.7 °C | 73 ± 13.2 | 58.8 ± 5.9 | 19.7 ± 4 | 94.5 ± 0.4 | CC(C)c1cc2c(c(O)c1O)C13CCCC(C)(C)C1C(OC3=O)C2NC(=O)c1ccc(-c2cssc2=S)cc1 (centres unmarked) [Compound 33, N-[4-(3-thioxo-3H-1,2-dithiol-4-yl)benzoyl]rosmaricine] | – | 65.4 ± 3.9 | – | – | – | – | – | – | – | – | – | – |
| – | – | – | – | – | – | – | CCCC(CCC)C(=O)OCCSS(C)(=O)=O [a, 2-((methylsulfonyl)thio)ethyl 2-propylpentanoate] | – | – | – | – | – | – | – | – | – | 0.7 | inhibited the growth of PC3 in subcutaneous xenografts | good antiproliferative activity in micromolar concentrations |

| Compound | IC50 (STAT3-SH2 domain [1]) [µM] | IC50 [2] [µM] | melting point | IC50 [3] [µM] | inhibition at 30 µM (SH2-domain of STAT1) [%] | IC50 (SH2-domain of STAT1) [µM] | inhibition at 30 µM (STAT3-SH2 domain [1]) [%] | IC50 (STAT3) [µM] | IC50 at 48 h (HCT-116 cells) [µM] | IC50 (HCT-116 cells) [µM] | activity against lymphocytic leukemia P388 [4] | fold increase of inhibitory potency on STAT3 (STAT3-SH2 domain [1]; in comparison to rosmaricine) [fold] | fold increase of antiproliferative activity (HCT-116 cells; HCT-116, in comparison to rosmaricine) [fold] | cytotoxicity against MCF-7 cells [5] | selectivity index (hSMC versus HCT-116) [6] | IC50 ([6]; Homo sapiens, HSMC) [µM] | IC50 (STAT3-SH2 domain [7]) [µM] | growth of PC3 in subcutaneous xenografts [8] | in vitro antiproliferative activity [9] |
| --- | --- | --- | --- | --- | --- | --- | --- | --- | --- | --- | --- | --- | --- | --- | --- | --- | --- | --- | --- |
| CC(C)c1cc2c(c(O)c1O)C13CCCC(C)(C)C1C(OC3=O)C2NC(=O)CCCCSS(C)(=O)=O (centres unmarked) [Compound 31, N-[5-(methylsulfonyl)thiopentanoyl]rosmaricine] | 0.2 | > 100 | 121.1 to 124.2 °C (dec.) | 53.3 ± 10.9 | 99.9 ± 0.3 | 2.8 ± 0.1 | 100.1 ± 0.1 | – | 73.8 ± 0.9 | – | – | 10 | – | – | – | – | – | – | – |
| C=CCSSCCC(=O)NC1c2cc(C(C)C)c(O)c(O)c2C23CCCC(C)(C)C2C1OC3=O (centres unmarked) [Compound 32, N-[3-(allyldisulfanyl)propanoyl]rosmaricine] | 2.3 ± 0.4 | 37 ± 0.8 | 206.9 to 209.2 °C | 13 ± 0.7 | 23.9 ± 0.4 | > 30 | 99.5 | – | 3.5 ± 2.8 | – | – | – | 19 | confirmed, even at lower level | 6 | 21.2 | – | – | – |

From PMC6009881, “New sulfurated derivatives of cinnamic acids and rosmaricine as inhibitors of STAT3 and NF-κB transcription factors” (Journal of Enzyme Inhibition and Medicinal Chemistry, 2017)
